Reference: patent US9062028B2, “Bicyclic nitrogen containing heteroaryl TGR5 receptor modulators” (Bristol-Myers Squibb Company, priority 2011, dated 2015)

Molecular target: T1, recombinant human TGR5 (Homo sapiens, UniProt Q8TDU6)
T1 construct: expressed in transfected cells
T1 sequence (Q8TDU6 1-330): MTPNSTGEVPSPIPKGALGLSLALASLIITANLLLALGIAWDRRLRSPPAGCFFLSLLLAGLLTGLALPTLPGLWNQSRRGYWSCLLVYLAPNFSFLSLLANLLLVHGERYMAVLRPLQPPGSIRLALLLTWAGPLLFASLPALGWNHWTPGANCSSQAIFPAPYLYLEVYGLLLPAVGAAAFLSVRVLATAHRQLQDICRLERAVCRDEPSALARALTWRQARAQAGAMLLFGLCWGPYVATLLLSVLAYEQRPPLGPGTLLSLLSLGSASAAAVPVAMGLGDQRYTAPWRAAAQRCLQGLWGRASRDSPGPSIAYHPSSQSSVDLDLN
Experiment: cAMP assay (cAMP accumulation, HTRF) in CHOK1 cells stably expressing TGR5
Type: cell-based
Details: CHOK1 cells stably expressing human TGR5, 30 minutes at RT, 1% DMSO
Experimental: The in vitro modulation of recombinant human TGR5 was determined as follows.
A human TGR5 expression construct of human TGR5 was integrated into the genome of a CHOK1 cell line (Invitrogen). Once a stable CHOK1 cell line was generated, the cells were incubated for 5-10 minutes in culture medium consisting of F-12 (Invitrogen#11765-047) supplemented with 10% fetal bovine serum.
On the day of the cAMP accumulation assay, cells stably expressing the […] TGR5 construct were centrifuged at 1000 rpm for 5 minutes. The medium was aspirated and the cells were resuspended in 5 mL of assay buffer (phosphate-buffered saline with Ca^2+ and Mg^2+, Invitrogen#14040). The cells were counted using 1:2 dilution and then adjusted to 0.4-0.5×10^6 cells/mL in assay buffer, if necessary. Isobutylmethylxanthine (IBMX, Sigma#I5879) was added via a 1:5000 dilution to make a 0.1 mM final concentration and then 10 μL of the media were transferred to each well of a 384 well poly-D-lysine coated solid white plate (BD #35-6661) pre-dotted with 100 nL of with the desired concentration of compound added from a concentrated stock dissolved in dimethyl sulfoxide (DMSO) to give a final concentration of 1% DMSO in the assay. The plates were covered and incubated for 30 minutes at RT. cAMP accumulation was measured using the CisBio homogeneous time resolved fluorescence (HTRF) assay kit (#62AM2PEC) following the manufacturer's protocol. Briefly, 5 μl each of the cAMP-HTRF fluorescence detection reagents were added to each well, and the samples were incubated for at least one hour at room temperature. Fluorescence was excited at 320 nm and measured at 665 and 620 nm using the Envision instrument (Perkin Elmer), the fluorescence ratio of 665/620 was calculated and converted to nanomolar concentrations of cAMP in each well by interpolation from a cAMP standard curve. The concentration-response curves and EC50 values were calculated with a four parameter logistic curve fit equation utilizing Excel/XLfit software (Microsoft and IDBS). The EC50 value was calculated as the concentration of agonist which increased the cAMP concentration to a value halfway between the baseline and the maximum.

Row | SMILES | EC50 [nM]
1 | Cc1cccc(OCCCC(=O)N2C[C@@H]3C[C@@H]3c3c(-c4cnn(Cc5cccc(C(=O)NCS(=O)(=O)O)c5)c4)cccc32)c1C (single isomer, unassigned) [Example 238] | 59
2 | Cc1cccc(OCCCC(=O)N2C[C@@H]3C[C@@H]3c3c(-c4cnn(Cc5cccc(C(=O)NCCS(=O)(=O)O)c5)c4)cccc32)c1C (single isomer, unassigned) [Example 240] | 49
3 | Cc1c(Cl)cccc1OCCCC(=O)N1C[C@@H]2C[C@@H]2c2c(-c3cnn(Cc4cccc(C(=O)NCS(=O)(=O)O)c4)c3)cccc21 (single isomer, unassigned) [Example 242] | 49
4 | Cc1c(Cl)cccc1OCCCC(=O)N1C[C@@H]2C[C@@H]2c2c(-c3cnn(Cc4cccc(C(=O)NCC(=O)O)c4)c3)cccc21 (single isomer, unassigned) [Example 244] | 46
5 | Cc1cccc(OCCCC(=O)N2C[C@@H]3C[C@@H]3c3c(-c4cnn(Cc5cccc(NC(=O)NCCC(=O)O)c5)c4)cccc32)c1C (single isomer, unassigned) [Example 248] | 56
6 | Cc1cccc(OCCCC(=O)N2C[C@H]3C[C@H]3c3c(-c4cnn(Cc5cccc(NC(=O)NCCC(=O)O)c5)c4)cccc32)c1C (single isomer, unassigned) [Example 249] | 660
7 | Cc1cccc(OCCCC(=O)N2C[C@@H]3C[C@@H]3c3c(-c4cnn(Cc5cccc(NC(=O)NCC(=O)O)c5)c4)cccc32)c1C (single isomer, unassigned) [Example 250] | 29
8 | Cc1cccc(OCCCC(=O)N2C[C@H]3C[C@H]3c3c(-c4cnn(Cc5cccc(NC(=O)NCC(=O)O)c5)c4)cccc32)c1C (single isomer, unassigned) [Example 251] | 644
9 | Cc1cccc(CCOCC(=O)N2CCCc3c(-c4cnn(Cc5cccc(C(=O)O)c5)c4)cccc32)c1C [Example 15, 3-((4-(1-(2-(2,3-Dimethylphenethoxy)acetyl)-1,2,3,4-tetrahydroquinolin-5-yl)-1H-pyrazol-1-yl)methyl)benzoic acid] | 5900
10 | Cc1cccc(OCCOC(=O)N2CCOc3c(-c4cnn(Cc5ccc(C(=O)O)cc5)c4)cccc32)c1C [Example 28, 4-((4-(4-((2-(2,3-Dimethylphenoxy)ethoxy)carbonyl)-3,4-dihydro-2H-benzo[b][1,4]oxazin-8-yl)-1H-pyrazol-1-yl)methyl)benzoic acid] | 2860
11 | Cc1cccc(OCCOC(=O)N2CCOc3c(-c4cnn(Cc5cccc(C(=O)O)c5)c4)cccc32)c1C [Example 29, 3-((4-(4-((2-(2,3-Dimethylphenoxy)ethoxy)carbonyl)-3,4-dihydro-2H-benzo[b][1,4]oxazin-8-yl)-1H-pyrazol-1-yl)methyl)benzoic acid] | 596
12 | Cc1c(OCCCC(=O)N2CCCc3c(-c4cnn(Cc5cccc(C(=O)O)c5)c4)cccc32)cccc1C(F)(F)F [Example 32, 3-((4-(1-(4-(2-Methyl-3-(trifluoromethyl)phenoxy)butanoyl)-1,2,3,4-tetrahydroquinolin-5-yl)-1H-pyrazol-1-yl)methyl)benzoic acid] | 586
13 | O=C(O)c1cccc(Cn2cc(-c3cccc4c3C3CC3CN4C(=O)OCCOc3c(F)cccc3F)cn2)c1 (centres unmarked) [Example 32A, 3-((4-(3-((2-(2,6-Difluorophenoxy)ethoxy)carbonyl)-1a,2,3,7b-tetrahydro-1H-cyclopropa[c]quinolin-7-yl)-1H-pyrazol-1-yl)methyl)benzoic acid] | 3400
14 | Cc1cccc(OCCCC(=O)N2CCCc3c(-c4cn(Cc5cccc(C(=O)O)c5)nc4C)cccc32)c1C [Example 32G, 3-((4-(1-(4-(2,3-Dimethylphenoxy)butanoyl)-1,2,3,4-tetrahydroquinolin-5-yl)-3-methyl-1H-pyrazol-1-yl)methyl)benzoic acid] | 636
15 | Cc1cccc(OCCCC(=O)N2CCCc3c(-c4cccc(COC(=O)N(CCCS(=O)(=O)O)C5CC5)c4)cccc32)c1C [Example 36, 3-(Cyclopropyl((3-(1-(4-(2,3-dimethylphenoxy)butanoyl)-1,2,3,4-tetrahydroquinolin-5-yl)benzyloxy)carbonyl)amino)propane-1-sulfonic acid] | 2910
16 | Cc1cccc(OCCCC(=O)N2CCCc3c(-c4cccc(COC(=O)NCCC(=O)O)c4)cccc32)c1C [Example 43, 3-((3-(1-(4-(2,3-Dimethylphenoxy)butanoyl)-1,2,3,4-tetrahydroquinolin-5-yl)benzyloxy)carbonylamino)propanoic acid] | 611
17 | Cc1cccc(OCCCC(=O)N2CCCc3c(-c4csc(COC(=O)NCCC(=O)O)n4)cccc32)c1C [Example 46, 3-(((4-(1-(4-(2,3-Dimethylphenoxy)butanoyl)-1,2,3,4-tetrahydroquinolin-5-yl)thiazol-2-yl)methoxy)carbonylamino)propanoic acid] | 1920
18 | Cc1cccc(OCCCC(=O)N2CCCc3c(-c4cnn(C(C)c5cccc(NC(=O)NCS(=O)(=O)O)c5)c4)cccc32)c1C (centres unmarked) [Example 81, (3-(3-(1-(4-(1-(4-(2,3-Dimethylphenoxy)butanoyl)-1,2,3,4-tetrahydroquinolin-5-yl)-1H-pyrazol-1-yl)ethyl)phenyl)ureido)methanesulfonic acid] | 670
19 | Cc1cccc(OCCCC(=O)N2CCCc3c(-c4cnn(C(C)c5cccc(NC(=O)NCCS(=O)(=O)O)c5)c4)cccc32)c1C (centres unmarked) [Example 82, 2-(3-(3-(1-(4-(1-(4-(2,3-Dimethylphenoxy)butanoyl)-1,2,3,4-tetrahydroquinolin-5-yl)-1H-pyrazol-1-yl)ethyl)phenyl)ureido)ethanesulfonic acid] | 646

The remaining lines, values ahead:

Row | EC50 [nM] | SMILES
20 | 50 | Cc1cccc(OCCCC(=O)N2CC3CC3c3c(-c4cnn(Cc5c(F)cc(C(=O)NCS(=O)(=O)O)cc5Cl)c4)cccc32)c1C (centres unmarked) [Example 69B, (3-Chloro-4-((4-(3-(4-(2,3-dimethylphenoxy)butanoyl)-1a,2,3,7b-tetrahydro-1H-cyclopropa[c]quinolin-7-yl)-1H-pyrazol-1-yl)methyl)-5-fluorobenzamido)methanesulfonic acid]
21 | 58 | Cc1cccc(OCCCC(=O)N2CC3CC3c3c(-c4cnn(Cc5c(F)cc(C(=O)NCCS(=O)(=O)O)cc5Cl)c4)cccc32)c1C (centres unmarked) [Example 69C, 2-(3-Chloro-4-((4-(3-(4-(2,3-dimethylphenoxy)butanoyl)-1a,2,3,7b-tetrahydro-1H-cyclopropa[c]quinolin-7-yl)-1H-pyrazol-1-yl)methyl)-5-fluorobenzamido)ethanesulfonic acid]
22 | 45 | Cc1cccc(OCCCC(=O)N2CC3CC3c3c(-c4cnn(Cc5c(F)cc(C(=O)NCCC(=O)O)cc5Cl)c4)cccc32)c1C (centres unmarked) [Example 69E, 3-(3-Chloro-4-((4-(3-(4-(2,3-dimethylphenoxy)butanoyl)-1a,2,3,7b-tetrahydro-1H-cyclopropa[c]quinolin-7-yl)-1H-pyrazol-1-yl)methyl)-5-fluorobenzamido)propanoic acid]
23 | 54 | Cc1cccc(OCCCC(=O)N2CC3CC3c3c(-c4cnn(Cc5c(F)cc(C(=O)NCCC[C@H](NC(=N)N)C(=O)O)cc5Cl)c4)cccc32)c1C (stereo partly drawn) [Example 69F, (2S)-5-(3-Chloro-4-((4-(3-(4-(2,3-dimethylphenoxy)butanoyl)-1a,2,3,7b-tetrahydro-1H-cyclopropa[c]quinolin-7-yl)-1H-pyrazol-1-yl)methyl)-5-fluorobenzamido)-2-guanidinopentanoic acid]
24 | 51 | Cc1cccc(OCCCC(=O)N2CC3CC3c3c(-c4cnn(Cc5cccc(N)c5)c4)cccc32)c1C (centres unmarked) [Example 69G, 1-(7-(1-(3-Aminobenzyl)-1H-pyrazol-4-yl)-1a,2-dihydro-1H-cyclopropa[c]quinolin-3(7bH)-yl)-4-(2,3-dimethylphenoxy)butan-1-one]
25 | 52 | Cc1cccc(OCCCC(=O)N2CC3CC3c3c(-c4cnn(Cc5cc(C(=O)O)ccc5Cl)c4)cccc32)c1C (centres unmarked) [Example 69H, 4-Chloro-3-((4-(3-(4-(2,3-dimethylphenoxy)butanoyl)-1a,2,3,7b-tetrahydro-1H-cyclopropa[c]quinolin-7-yl)-1H-pyrazol-1-yl)methyl)benzoic acid]
26 | 5000 | Cc1cccc(OCCCC(=O)N2CCCc3c(-c4cnn(CC5(CNC(=O)NCCS(=O)(=O)O)CC5)c4)cccc32)c1C [Example 69J, 2-(3-((1-((4-(1-(4-(2,3-Dimethylphenoxy)butanoyl)-1,2,3,4-tetrahydroquinolin-5-yl)-1H-pyrazol-1-yl)methyl)cyclopropyl)methyl)ureido)ethanesulfonic acid]
